Where a SMILES comes first, the peptide text is derived from it. The star is where a group is joined. Fmoc = O=C(OCC1c2ccccc2-c2ccccc21)*
Assays:
MCF7 spheroids [1] = assay: MTT cytotoxicity of chemotherapeutic drugs on spheroids versus 2D culture; type: cell-based; conditions: 0-14 μM, 24 h
Protocol: Cytotoxicity assays by MIT: MCF7 spheroids were cultured for five days in DMEM (Dulbecco's modified Eagle's medium) with 10% FBS, in a 5% CO2 incubator at 37° C. followed by treatment with different chemotherapeutics drugs (0-14 μM) for 24 h. For control, media containing buffer. After 24 h of incubation, 10 μl of MTT solution (5 mg/ml prepared in PBS) was added to each well and incubated for 4 h. Subsequently, 100 μl of SDS-DMF solution (50% DMF and 20% SDS, pH 4.75) were added and kept for overnight incubation. The absorption values at 560 nm and 690 nm (background absorbance) were determined using a SpectraMax M2e microplate reader (Molecular Devices, USA). The cell viability was plotted as percentage cell viability by considering 100% viability for the buffer control (FIG. 18 A).
Dense spheroids tended to show relative resistance to all these five chemotherapeutic drugs in the 3D-culture as compared to this resistance in 2D. […] These findings confirm that the formation of dense spheroids in 3D-culture plays a role in determining the sensitivity of the cell lines to these chemotherapeutic drugs. […] 3D, geometrical difference can have far-reaching impacts in terms of understanding physiological response.

MDA-MB-231 cells = assay: Efficacy of DOX released from hydrogels (MTT, Annexin-PI FACS); type: cell-based
Protocol: MDA-MB-231, breast cancer cell line was used for determining the efficacy of DOX release. To do so, MDA-MB-231 cells were grown on the DOX encapsulated hydrogels at a density of 2×10000 and cultured in complete DMEM media for 24 hrs. After 24 hrs, the cell morphology was imaged and the viability was then quantified using 3-(4,5-dimethylthiazol-2-yl)-2,5-diphenyl tetrazolium bromide (MTT) assay. FIG. 22A phase contrast images of MDA-MB-231 cells treated with DOX encapsulated hydrogels. […] For FACS analysis, MDAMB-231 cells were seeded on the hydrogel in the density 50,000 cells/well and allowed to grow for 24 hrs. Following the incubation, the cells were trypsinized and harvested in an eppendorf. The cell pellet was obtained by centrifugation and was resuspended in binding buffer. The percentage of apoptotic cells were measured by Annexin-PI staining method. 2 μl each of Annexin and PI was added to the resuspended cells and incubated for 5 mins before acquiring the results using FACS. […] To determine the efficacy of RA released from the hydrogel, SH-SY5Y neuroblastoma cells were seeded on hydrogel encapsulated with and without RA at a density of 1×10^4 and cultured in complete DMEM media. […] After 48 hrs, the morphology of these cells was analyzed by phase contrast images (FIG. 23A) and the cell shape was quantified by circularity using Image J software (FIG. 23C).

[2] = MTT cytotoxicity assay of cells cultured on the hydrogels; type: cell-based; conditions: human, hydrogel 5 mg/ml peptide, 24 hours culture, read-out: cell viability
Protocol: To determine whether the functional amyloid hydrogel is non-toxic in nature, MTT (3-[4,5-dimethylthiazol-2-yl]-2,5 diphenyl tetrazolium bromide) assay was performed. The amyloid hydrogels were casted at a concentration of 5 mg/ml for each peptide and neuroblastoma, SH-SY5Y cells at a density of 10^4 were seeded and cultured on the hydrogels for 24 hours. The MTT reagent (0.5 mg/ml final concentration) was added to the cells after 24 hrs of culture and the cells were further incubated for 4 h. Finally, 100 μl of 50% N, N-dimethylformamide/20% sodium dodecyl sulfate solution was added, and the mixture was incubated overnight. The absorption was then measured at 560 nm with an automatic microtiter plate reader (Thermo Fisher Scientific, Waltham, MA, USA). FIG. 9 depicts the percentage of cell viability.

SH-SY5Y cells = assay: Differentiation of cells on RA encapsulated hydrogels; type: cell-based; conditions: RA released from RA encapsulated hydrogels
Protocol: MDA-MB-231, breast cancer cell line was used for determining the efficacy of DOX release. To do so, MDA-MB-231 cells were grown on the DOX encapsulated hydrogels at a density of 2×10000 and cultured in complete DMEM media for 24 hrs. After 24 hrs, the cell morphology was imaged and the viability was then quantified using 3-(4,5-dimethylthiazol-2-yl)-2,5-diphenyl tetrazolium bromide (MTT) assay. FIG. 22A phase contrast images of MDA-MB-231 cells treated with DOX encapsulated hydrogels. […] For FACS analysis, MDAMB-231 cells were seeded on the hydrogel in the density 50,000 cells/well and allowed to grow for 24 hrs. Following the incubation, the cells were trypsinized and harvested in an eppendorf. The cell pellet was obtained by centrifugation and was resuspended in binding buffer. The percentage of apoptotic cells were measured by Annexin-PI staining method. 2 μl each of Annexin and PI was added to the resuspended cells and incubated for 5 mins before acquiring the results using FACS. […] After 48 hrs, the morphology of these cells was analyzed by phase contrast images (FIG. 23A) and the cell shape was quantified by circularity using Image J software (FIG. 23C).
The SH-SY5Y cells grown on hydrogel were immunostained with β-III tubulin (β-IIIT), a neuron specific marker to determine the efficacy of the released RA (FIG. 23B). […] The gene expression was analyzed by Real-time PCR technique.

MCF7 spheroids [3] = assay: Fluorescence live/dead study of drug effect on 2D versus 3D; type: cell-based; conditions: 24 h
Protocol: Fluorescence study was also performed to observe the effect of drug on 2D versus 3D. Here, after maturation of spheroids i.e., 5 days of culture on gel 4, different dose of paclitaxel (2-10 μM) was added for 24 h. To assess the effect of drug, cell viability was observed by staining through calcein AM and ethidium homodimer-1. Images were captured after incubation with dyes for 1 h. […] On the other hand, at the concentration of 4 μM, 70% of the cells for 2D are dead for the drug paclitaxel (FIG. 18 B).

[4] = tested on: STZ-induced diabetic rat model; assay: Insulin delivery from hydrogels in diabetic rats
Protocol: The functional amyloid hydrogel encapsulated with insulin (5 mg/ml) was administered subcutaneously to the diabetic rat model. Blood samples were collected from the tail veins of rats prior to drug administration and at different time intervals after dosing. Diabetes model rats were fasted for 12 h prior to and remained fasted during the experiment, but were allowed water ad libitum. The blood glucose level was checked biochemically at regular interval. The insulin released from the hydrogel in vivo was also monitored. To do that, blood samples were centrifuged (10,000 rpm, 4° C. for 15 min) and subsequently quantified using an appropriate insulin ELISA kit and during various time intervals.

Question: With `O=c1[nH]cc(F)c(=O)[nH]1` [5FU] as the compound, how does the “death in 3D” value (MCF7 spheroids [1]) read?
Answer: The value was “more death in 3D as compared to other drugs”.

Question: For `COc1cccc2c1C(=O)c1c(O)c3c(c(O)c1C2=O)C[C@@](O)(C(=O)CO)C[C@@H]3O[C@H]1C[C@H](N)[C@H](O)[C@H](C)O1` [DOX, doxorubicin], which “change in cell viability (FACS, Annexin-PI)” value (MDA-MB-231 cells; DOX encapsulated in the hydrogels, 24 hrs) is on record?
Answer: The value was “decrease in cell viability”.

Question: What about the cancer cell death (MDA-MB-231 cells; DOX released from DOX encapsulated hydrogels) of the same compound?
Answer: Its cancer cell death is about 70%.

Question: For `CC[C@H](C)[C@H](NC(=O)[C@H](CCC(=O)O)NC(=O)[C@H](CCSC)NC(=O)[C@H](CC(C)C)NC(=O)[C@H](CCCCN)NC(=O)OCC1c2ccccc2-c2ccccc21)C(=O)O` [FA1, KLMEI] (Fmoc-KLMEI-OH; N-terminus and C-terminus assumed), which viability at 24 h, 5000 µg/mL [2] is on record?
Answer: The viability at 24 h, 5000 µg/mL was over 80%.

Question: With `CC[C@H](C)[C@H](NC(=O)[C@H](CC(=O)O)NC(=O)[C@H](CC(C)C)NC(=O)[C@H](CC(C)C)NC(=O)[C@H](CCCCN)NC(=O)OCC1c2ccccc2-c2ccccc21)C(=O)O` [FA2, KLLDI] (Fmoc-KLLDI-OH; N-terminus and C-terminus assumed) as the compound, how does the viability at 24 h, 5000 µg/mL [2] read?
Answer: Its viability at 24 h, 5000 µg/mL is over 80%.

Question: Which viability at 24 h, 5000 µg/mL [2] does the source give for `CC(C)C[C@H](NC(=O)[C@@H](NC(=O)[C@@H](NC(=O)[C@H](C)NC(=O)OCC1c2ccccc2-c2ccccc21)C(C)C)C(C)C)C(=O)N[C@@H](CO)C(=O)O` [FA3, AVVLS] (Fmoc-AVVLS-OH; N-terminus and C-terminus assumed) here?
Answer: Its viability at 24 h, 5000 µg/mL is over 80%.

Question: For `CC1=C(/C=C/C(C)=C/C=C/C(C)=C/C(=O)O)C(C)(C)CCC1` [RA, trans-retinoic acid], which differentiation of cells (SH-SY5Y cells) is on record?
Answer: The differentiation of cells was “induced differentiation of SH-SY5Y cells towards neuronal lineage”.

Question: Which “cells dead in 2D” value (MCF7 spheroids [3]; 4 μM, calcein AM / ethidium homodimer-1) does the source give for `CC(=O)O[C@H]1C(=O)[C@@]2(C)[C@H]([C@H](OC(=O)c3ccccc3)[C@]3(O)C[C@H](OC(=O)[C@H](O)[C@@H](NC(=O)c4ccccc4)c4ccccc4)C(C)=C1C3(C)C)[C@]1(OC(C)=O)CO[C@@H]1C[C@@H]2O` [paclitaxel] here?
Answer: Its value is 70%.

Question: What about the “resistance 3D versus 2D” value (MCF7 spheroids [3]; 2-10 μM, spheroids 5 days on gel 4) of the same compound?
Answer: The value was 3D are more resistant than 2D.

Question: Which results are given for insulin?
Answer: blood sugar level ([4]; insulin encapsulated in the hydrogels, subcutaneously injected): 100 to 120 mg/dL; time blood glucose level maintained after administration ([4]; only insulin control): ≤ 6 h; time serum insulin level maintained after administration ([4]; only insulin control): ≤ 6 h
